Results on one molecule are retold here after publication PMC5003771 (Molecular microbiology, 2015).

As usually defined, the Kd is the constant that tells how readily two partners part at equilibrium. Low values mean tighter binding, high ones weaker binding.

For one test, the target named is CabPA (Streptococcus mutans, UniProt Q8DT33). Kind of test: DRaCALA, […]-labelled c-di-AMP on nitrocellulose. It counts as binding.
In the next test the target is CabPB (Streptococcus mutans, UniProt Q8DSR3). Kind of test: DRaCALA, […]-labelled c-di-AMP on nitrocellulose. The format is binding.

On to `Nc1ncnc2c1ncn2[C@@H]1O[C@@H]2COP(=O)(O)O[C@H]3[C@@H](O)[C@H](n4cnc5c(N)ncnc54)O[C@@H]3COP(=O)(O)O[C@H]2[C@H]1O` [c-di-AMP], for which the Kd on CabPA is 7.8 ± 0.3 µM; on CabPB, 1200 ± 200 nM.
